# PubChem BioAssay (NCI)
#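 96-well plates; 48 h exposure; 5 concentrations. Endpoints by linear interpolation between flanking doses. Not reached: highest tested concentration assigned. TGI is the concentration that stops growth completely.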
# Key:
# Assay in all cases: inhibition of tumour cell growth, NCI panel, 48 h
# 786-0 renal = test system: 786-0 renal
# A498 renal = test system: A498 renal
# A549 NSCLC = test system: A549 NSCLC
# ACHN renal = test system: ACHN renal
# BT-549 breast = test system: BT-549 breast
# CAKI-1 renal = test system: CAKI-1 renal
# CCRF-CEM leukemia = test system: CCRF-CEM leukemia
# COLO 205 colon = test system: COLO 205 colon
# DU-145 prostate = test system: DU-145 prostate
# EKVX NSCLC = test system: EKVX NSCLC
# HCC-2998 colon = test system: HCC-2998 colon
# HCT-116 colon = test system: HCT-116 colon
# HCT-15 colon = test system: HCT-15 colon
# HL-60(TB) leukemia = test system: HL-60(TB) leukemia
# HOP-62 NSCLC = test system: HOP-62 NSCLC
# HOP-92 NSCLC = test system: HOP-92 NSCLC
# HS 578T breast = test system: HS 578T breast
# HT29 colon = test system: HT29 colon
# IGROV1 ovarian = test system: IGROV1 ovarian
# K-562 leukemia = test system: K-562 leukemia
# LOX IMVI melanoma = test system: LOX IMVI melanoma
# M14 melanoma = test system: M14 melanoma
# MALME-3M melanoma = test system: MALME-3M melanoma
# MCF7 breast = test system: MCF7 breast
# MDA-MB-231 breast = test system: MDA-MB-231 breast
# MDA-MB-435 = test system: MDA-MB-435
# MDA-N = test system: MDA-N
# MOLT-4 leukemia = test system: MOLT-4 leukemia
# NCI-H226 lung = test system: NCI-H226 lung
# NCI-H23 lung = test system: NCI-H23 lung
# NCI-H460 lung = test system: NCI-H460 lung
# NCI-H522 lung = test system: NCI-H522 lung
# NCI/ADR-RES ovarian = test system: NCI/ADR-RES ovarian
# OVCAR-3 ovarian = test system: OVCAR-3 ovarian
# OVCAR-4 ovarian = test system: OVCAR-4 ovarian
# OVCAR-5 ovarian = test system: OVCAR-5 ovarian
# OVCAR-8 ovarian = test system: OVCAR-8 ovarian
# RPMI-8226 leukemia = test system: RPMI-8226 leukemia
# RXF 393 renal = test system: RXF 393 renal
# SF-268 CNS = test system: SF-268 CNS
# SF-295 CNS = test system: SF-295 CNS
# SF-539 CNS = test system: SF-539 CNS
# SK-MEL-2 melanoma = test system: SK-MEL-2 melanoma
# SK-MEL-28 melanoma = test system: SK-MEL-28 melanoma
# SK-MEL-5 melanoma = test system: SK-MEL-5 melanoma
# SK-OV-3 ovarian = test system: SK-OV-3 ovarian
# SN12C renal = test system: SN12C renal
# SNB-19 CNS = test system: SNB-19 CNS
# SNB-75 CNS = test system: SNB-75 CNS
# SR leukemia = test system: SR leukemia
# SW-620 colon = test system: SW-620 colon
# T-47D breast = test system: T-47D breast
# TK-10 renal = test system: TK-10 renal
# U251 CNS = test system: U251 CNS
# UACC-257 melanoma = test system: UACC-257 melanoma
# UACC-62 melanoma = test system: UACC-62 melanoma
# UO-31 renal = test system: UO-31 renal
structure (smiles),measurement,setting,value
COc1ccc(-c2cc(=O)c3c(OC)c(OC)c(OC)c(OC)c3o2)cc1OC,TGI,786-0 renal,> 100 µM
same,TGI,A498 renal,> 100 µM
same,TGI,A549 NSCLC,> 100 µM
same,TGI,ACHN renal,> 100 µM
same,TGI,BT-549 breast,> 100 µM
same,TGI,CAKI-1 renal,> 100 µM
same,TGI,CCRF-CEM leukemia,> 100 µM
same,TGI,COLO 205 colon,> 100 µM
same,TGI,DU-145 prostate,> 100 µM
same,TGI,EKVX NSCLC,> 100 µM
same,TGI,HCC-2998 colon,> 100 µM
same,TGI,HCT-116 colon,> 100 µM
same,TGI,HCT-15 colon,> 100 µM
same,TGI,HL-60(TB) leukemia,59 µM
same,TGI,HOP-62 NSCLC,> 100 µM
same,TGI,HOP-92 NSCLC,74.4 µM
same,TGI,HS 578T breast,95.3 µM
same,TGI,HT29 colon,> 100 µM
same,TGI,IGROV1 ovarian,> 100 µM
same,TGI,K-562 leukemia,> 100 µM
same,TGI,LOX IMVI melanoma,> 100 µM
same,TGI,M14 melanoma,> 100 µM
same,TGI,MALME-3M melanoma,> 100 µM
same,TGI,MCF7 breast,> 100 µM
same,TGI,MDA-MB-231 breast,> 100 µM
same,TGI,MDA-MB-435,> 100 µM
same,TGI,MDA-N,> 100 µM
same,TGI,MOLT-4 leukemia,70.3 µM
same,TGI,NCI-H226 lung,> 100 µM
same,TGI,NCI-H23 lung,> 100 µM
same,TGI,NCI-H460 lung,> 100 µM
same,TGI,NCI-H522 lung,> 100 µM
same,TGI,NCI/ADR-RES ovarian,97.1 µM
same,TGI,OVCAR-3 ovarian,> 100 µM
same,TGI,OVCAR-4 ovarian,> 100 µM
same,TGI,OVCAR-5 ovarian,> 100 µM
same,TGI,OVCAR-8 ovarian,> 100 µM
same,TGI,RPMI-8226 leukemia,> 100 µM
same,TGI,RXF 393 renal,> 100 µM
same,TGI,SF-268 CNS,> 100 µM
same,TGI,SF-295 CNS,> 100 µM
same,TGI,SF-539 CNS,> 100 µM
same,TGI,SK-MEL-2 melanoma,> 100 µM
same,TGI,SK-MEL-28 melanoma,> 100 µM
same,TGI,SK-MEL-5 melanoma,> 100 µM
same,TGI,SK-OV-3 ovarian,> 100 µM
same,TGI,SN12C renal,> 100 µM
same,TGI,SNB-19 CNS,> 100 µM
same,TGI,SNB-75 CNS,> 100 µM
same,TGI,SR leukemia,> 100 µM
same,TGI,SW-620 colon,> 100 µM
same,TGI,T-47D breast,70.6 µM
same,TGI,TK-10 renal,> 100 µM
same,TGI,U251 CNS,> 100 µM
same,TGI,UACC-257 melanoma,> 100 µM
same,TGI,UACC-62 melanoma,72.4 µM
same,TGI,UO-31 renal,> 100 µM
